From patent US20100204216A1, “PHARMACEUTICAL COMPOSITION FOR […]-beta PROTEIN ACCUMULATION” (SUMMITOMO CHEMICAL COMPANY LIMITED, priority 2007, published 2010)

System: CHP212 cells
Experiment: Measurement of fluctuation in the amount of Aβ accumulation in cultured nerve cells
Assay type: cell-based
Details: cultured nerve cells (human neuroblastoma CHP212); Aβ in the medium by ELISA (Human/Rat Amyloid β1-42 kit) 48 hours after addition of test substance; 10^-12 M to 10^-6 M; versus DMSO control (100%), FIG. 1
Text: FIG. 1 is a diagram showing results of measuring fluctuation caused by a test substance of the formula (a) in the amount of Aβ accumulation in cultured nerve cells (CHP212 cells).
In the diagram, each column represents, starting from the left, a result of measurement obtained in a well to which the test substance has been added so that its final concentration can be 10^−12M (10^−12 M), in a well to which the test substance has been added so that its final concentration can be 10^−11M (10^−11M), in a well to which the test substance has been added so that its final concentration can be 10^−10M (10^−10M), in a well to which the test substance A has been added so that its final concentration can be 10^−9M (10^−9M), in a well to which the test substance has been added so that its final concentration can be 10^−8M (10^−8M), in a well to which the test substance has been added so that its final concentration can be 10^−7M (10^−7M), and in a well to which the test substance has been added so that its final concentration can be 10^−6M (10^−6 M). The results are shown in % by setting a result obtained in a control well to which only a solvent (DMSO) has been added as 100%. […]

O=c1cc(C(F)(F)F)c2cc(N(CC(F)(F)F)CC(F)(F)F)ccc2[nH]1 [formula (a)]
amount of Aβ accumulation: markedly decreased
